Molecular target: T1, Ste2p (wild type, C-terminally truncated) (Saccharomyces cerevisiae, UniProt D6VTK4)
T1 sequence (D6VTK4 1-304): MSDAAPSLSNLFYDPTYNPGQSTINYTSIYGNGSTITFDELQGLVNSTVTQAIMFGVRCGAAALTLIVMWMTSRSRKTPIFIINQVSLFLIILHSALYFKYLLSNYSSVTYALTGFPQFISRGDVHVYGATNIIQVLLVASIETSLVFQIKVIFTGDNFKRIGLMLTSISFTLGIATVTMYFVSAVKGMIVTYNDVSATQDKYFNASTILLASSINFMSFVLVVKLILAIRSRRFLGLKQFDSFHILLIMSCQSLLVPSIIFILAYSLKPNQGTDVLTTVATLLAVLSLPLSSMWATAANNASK
Assay: Fluorescent ligand binding
Conditions: FL1/FL2 emission of the ligand labeled with NBD at Lys7, bound to normal Ste2p; normalised to [Lys^7(NBD),Nle^12]α-factor

| Substance | Relative Bmax Ratio |
| --- | --- |
| [des-Trp^1,Ala^3,Nle^12]α-factor | 0.49 ± 0.03 |
| [desTrp^1,desHis^2,Nle^12]α-factor | 0.42 ± 0.05 |

Source: article PMC3104124 (Journal of molecular biology, 2011)
